Assay results from patent US20140187556A1, “ANTI-AMYLOID COMPOUNDS AND METHODS” (Treventis Corporation, priority 2011, published 2014).
Blank lines part the entries; values can stand above or below the compound they belong to.

What was measured:
[1] = system: MDR1-MDCK cell monolayers; assay: Blood-brain barrier penetration potential using MDR1-MDCK cell monolayers; type: in vitro ADME; settings: 5 μM, 120 min
Description: (§1) This assay is used to determine the blood-brain barrier (BBB) penetration potential of a test compound using MDR1-MDCK cell monolayers. Further details on this method may be found in Taub M E, et al., Functional assessment of multiple Pglycoprotein (P-gp) probe substrates: Influence of cell line and modulator concentration on P-gp activity. Drug Metab Dispos. 2005 November; 33(11): 1679-87 and Wang Q, et al., Evaluation of the MDR-MDCK cell line as a permeability screen for the blood-brain barrier. Int J. Pharm. 2005 Jan. 20; 288(2):349-59; each of which is hereby incorporated by reference. Test compound was formulated in 300 μL of DMSO at 10 mM and diluted to 5 μM in HBSSg with maximum DMSO concentration not greater than 1%. Confluent monolayers of MDR1-MDCK cells, 7 to 11 days old, were used. A receiver well, having apical and basolateral sides at pH 7.4, was used with 1% BSA in modified Hanks buffer (HBSSg). Two monolayers were dosed with test compound in each direction (N=2). Apical side dosing was used for A-B assessment and basolateral side was used for B-A assessment; taken together, this information provides a bidirectional permeability potential. Apical and basolateral sides were sampled at 120 minutes and concentrations of test compound were determined using an LC-MS/MS method with a minimum 4 point calibration curve. Apparent permeability (Papp) in both directions (A-B and B-A) was calculated, as was the efflux ratio (Papp B-A)/(Papp A-B).

[2] = In vivo brain/plasma ratio determination in CD-1 mice; settings: for Mean brain/plasma ratio: 2 hours; for maximum brain/plasma ratio: day 5, once daily i.p. dosing
Method: Five groups of CD-1 mice (both sexes; individual weights 20 to 40 g) were dosed intraperitoneally with different doses of TRV 1067 (0, 3, 10, 30, and 100 mg/kg). DMSO (100%) was used as a vehicle. Animals had ad libitum access to rodent chow. Some animals were euthanized 2 hours after dosing on Day 1 and brains were harvested. Blood (0.15 mL) was collected 15 minutes after dosing and at sacrifice. The remaining animals were dosed once daily for 5 consecutive days. Blood samples were collected 15 minutes after dosing on Day 1. On Day 5, blood samples were collected 15 minutes and 2 hours after dosing and brains were harvested.
Standards were prepared in CD-1 mouse plasma containing sodium heparin as an anticoagulant and CD-1 mouse brain homogenate. An eight-point calibration curve was prepared at concentrations of 1000, 500, 100, 50, 10, 5, 1, and 0.5 ng/mL by serial dilution. Standard samples were treated identically to the study samples. Brain samples were homogenized with a Virsonic 100 ultrasonic homogenizer. Each brain sample was first weighed, and then an appropriate volume of 20:80 methanol:water was added to make a 4 mL/1 g sample. Samples were then homogenized on ice, and stored frozen until analysis. Plasma and brain homogenate samples were extracted via acetonitrile precipitation on a Tomtec Quadra 96-Model 320 liquid handling system in a 96-well plate format. A Perkin Elmer series 200 micropumps and LEAP Autosampler high-performance liquid chromatograph (HPLC) was used with a 0.2% formic acid/water/acetonitrile solvent system for separation purposes. The compound was quantitated using a PE Sciex API3000 mass spectrometer connected to the HPLC; negative polarity was used, with TRV 1067 analyzed using ion settings of 347.1 mass/charge ratio for the precursor and 212.1 for the product ions, respectively. Warfarin was used in negative polarity (307.1 precursor, 250.0 product) as an internal standard.

Tau441 = Tau441 (Homo sapiens, UniProt P10636); assay: Thioflavin S (ThS) tau aggregation assay; type: biochemical; settings: FIG. 1; for inhibition at 20 µM: 20 μM compound; for IC50: read-out: tau aggregation IC50 (suggested by inhibition at 20 μM)
Method: Analogous to the method of Example 1, the ability of compounds to inhibit the aggregation of tau was performed by substituting […] with tau and Thioflavin T with Thioflavin S.

Aβ40 = biological target: T1, Aβ40 (Homo sapiens, UniProt P05067); assay: Thioflavin T (ThT) Aβ aggregation assay; type: biochemical; settings: 20 μM Aβ40, 37 degrees C
T1 construct: pre-treated Aβ40 (40 μM in 20 mM Tris, pH 7.4)
Method: Aβ40 (1.0 mg) was pre-treated in a 1.5 mL microfuge tube with HFIP (1 mL) and sonicated for 20 min to disassemble any pre-formed Aβ aggregates. The HFIP was removed with a stream of argon and the Aβ dissolved in Tris base (5.8 mL, 20 mM, pH ˜10). The pH was adjusted to 7.4 with concentrated HCl (−10 μL) and the solution filtered using a syringe filter (0.2 μm) before being used.
The kinetic ThT assay for Aβ aggregation is similar to that of Chalifour et al (Chalifour et al, 2003, J. Biol. Chem. 278:34874-81). Briefly, pre-treated Aβ40 (40 μM in 20 mM Tris, pH 7.4), was diluted with an equal volume of 8 μM ThT in Tris (20 mM, pH 7.4, 300 mM NaCl). Aliquots of Aβ/ThT (200 μL) were added to wells of a black polystyrene 96-well plate, followed by 2 μL of a compound in DMSO (variable concentration), or DMSO alone (controls). Incubations were performed in triplicate and were taken to contain 20 μM Aβ, various concentration of compound in 20 mM Tris, pH 7.4, 150 mM NaCl, 1% DMSO. Plates were covered with clear polystyrene lids and incubated at 37 degrees C. in a Tecan Genios microplate reader. Fluorescence readings (λex=450 nm, λem=480 nm) were taken every 15 min., after first shaking at high intensity for 15 s and allowing to settle for 10 s before each reading. Active compounds attenuated the increase in fluorescence over time that occurred in controls.

[3] = Metabolic stability in mouse liver microsomes; type: in vitro ADME; settings: 1 μM compound, 0.5 mg/mL microsomal protein, 1 mM NADPH
Method: This assay is used to determine the percent remaining and intrinsic clearance of a test compound incubated with pooled mouse liver microsomes in the presence of NADPH. Further details on this method may be found in Jeffrey P, et al., Utility of metabolic stability screening: comparison of in vitro and in vivo clearance. enobiotica. 2001 August-September; 31(8-9):591-8 and Lin J H, et al., Role of pharmacokinetics and metabolism in drug discovery and development. Pharmacol Rev. 1997; 49(4):403-49; each of which is hereby incorporated by reference. Test compound was formulated in 300 μL of DMSO at 10 mM and was diluted to 1 μM with final concentration of organic solvent <0.25% for the experiment. Pooled liver microsomes were prepared from male mice, with 1 mM NADPH. Test compound was incubated at 37 degrees Celsius in buffer containing 0.5 mg/mL microsomal protein; the reaction was initiated by adding cofactors and sampled at 0, 10, 20, 30, and 60 minutes. A positive control (5 μM testosterone) was incubated and initiated in parallel for quality control. Samples were analyzed using an LTQ-Orbitrap XL mass spectrometer; HRMS was used to determine the peak area response ratio (peak area corresponding to test compound or control divided by that of an analytical internal standard) without running a standard curve.
Results were reported for selected compounds in the table of Example 1, as % test compound remaining after 60 minutes. Compounds which have less than about 5% remaining are not considered to be metabolically stable in mouse liver microsomes, while compounds with more than about 5% remaining are considered to be metabolically stable in mouse liver microsomes.

alpha-synuclein = alpha-synuclein (Homo sapiens, UniProt P37840); assay: alpha-synuclein aggregation assay (ThT, analogous to Example 1); type: biochemical; settings: 10 μM compound
Method: Analogous to the method of Example 1, the ability of compounds to inhibit the aggregation of alpha-synuclein was performed by substituting Aβ with alpha-synuclein.

[4] = Blood-brain barrier penetration potential using MDR1-MDCK cell monolayers; type: in vitro ADME; settings: dog
Description: as §1

T1 sequence (P05067 672-711 limits assumed): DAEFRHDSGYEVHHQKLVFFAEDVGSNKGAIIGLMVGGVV
Tau441, sequence (P10636 1-441 isoform P10636-8): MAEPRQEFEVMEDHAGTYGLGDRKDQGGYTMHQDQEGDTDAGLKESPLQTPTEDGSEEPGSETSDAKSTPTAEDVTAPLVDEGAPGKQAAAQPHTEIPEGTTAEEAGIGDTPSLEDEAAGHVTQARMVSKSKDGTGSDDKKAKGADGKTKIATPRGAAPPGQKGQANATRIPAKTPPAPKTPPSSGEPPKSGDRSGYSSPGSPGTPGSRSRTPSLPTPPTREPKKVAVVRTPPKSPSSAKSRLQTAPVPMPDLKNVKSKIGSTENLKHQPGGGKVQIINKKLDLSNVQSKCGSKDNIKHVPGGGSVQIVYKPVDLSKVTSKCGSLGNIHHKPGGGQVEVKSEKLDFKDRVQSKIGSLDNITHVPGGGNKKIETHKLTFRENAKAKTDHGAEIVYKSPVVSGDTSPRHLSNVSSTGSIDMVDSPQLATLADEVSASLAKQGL

- Efflux ratio (Papp B-A)/(Papp A-B) [1]: 1.8
- Papp A-B × 10^−6 cm/s ([1]; apical dosing, pH 7.4): 42.1 10^−6 cm/s
- Papp B-A × 10^−6 cm/s ([1]; basolateral dosing, pH 7.4): 74.9 10^−6 cm/s
- Mean brain/plasma ratio ([2]; female CD-1 mice, Day 1, 3 mg/kg intraperitoneally): too low to determine
- Mean brain/plasma ratio ([2]; female CD-1 mice, Day 1, 100 mg/kg intraperitoneally): 0.051
- maximum brain/plasma ratio ([2]; female CD-1 mice): 0.067
- Mean brain/plasma ratio ([2]; male CD-1 mice, Day 1, 3 mg/kg intraperitoneally): too low to determine
- Mean brain/plasma ratio ([2]; male CD-1 mice, Day 1, 100 mg/kg intraperitoneally): 0.168
- maximum brain/plasma ratio ([2]; male CD-1 mice): 0.256
SMILES: O=C(O)c1cccc(-c2ccc([N+](=O)[O-])c(NCc3ccccc3)c2)c1 [TRV 1067, 3′-(benzylamino)-4′-nitrophenyl-3-carboxylic acid]
- blood-brain barrier crossing in vivo ([2]; CD-1 mice, 3-100 mg/kg i.p.): did not appreciably cross the blood-brain barrier

- inhibition at 20 µM (Tau441): ~20%
- IC50 (Tau441): > 20 µM
- IC50 (Aβ40): 15.9 ± 7.8 µM
- Stability in mouse liver microsomes (% test compound remaining after 60 min) [3]: <1.0%
SMILES: O=C(c1ccccc1)N1CCN(c2ccc(F)c(Nc3ccccc3)c2)CC1 [TRV 1095, (4-(4-fluoro-3-(phenylamino)phenyl)piperazin-1-yl)(phenyl)methanone]

- Papp A→B at 120 min, 5 µM ([4]; MDCK-MDR1, apical dosing, pH 7.4, read-out: Papp A-B × 10^−6 cm/s): 38.3 ×10⁻⁶ cm/s
- Papp B→A at 120 min, 5 µM ([4]; MDCK-MDR1, basolateral dosing, pH 7.4, read-out: Papp B-A × 10^−6 cm/s): 47.4 ×10⁻⁶ cm/s
- efflux ratio at 120 min, 5 µM ([4]; MDCK-MDR1, pH 7.4, read-out: Efflux ratio (Papp B-A)/(Papp A-B)): 1.2
- IC50 (Aβ40): 1.34 ± 0.22 µM
- Stability in mouse liver microsomes (% test compound remaining after 60 min) [3]: 60%
SMILES: O=[N+]([O-])c1ccc(-c2cccc(-c3nnn[nH]3)c2)cc1NCc1ccccc1 [TRV 1120, N-benzyl-4-nitro-3′-(1H-tetrazol-5-yl)-[1,1′-biphenyl]-3-amine]
- inhibition of alpha-synuclein aggregation (alpha-synuclein): inhibit alpha-synuclein aggregation at 10 μM

- inhibition at 20 µM (Tau441): ~20%
- IC50 (Tau441): > 20 µM
- IC50 (Aβ40): 42.02 ± 0.12 µM
SMILES: O=C(c1ccccc1)N1CCN(c2ccc(C(F)(F)F)c(N3CCCC3)c2)CC1 [TRV 1158, phenyl(4-(3-(pyrrolidin-1-yl)-4-(trifluoromethyl)phenyl)piperazin-1-yl)methanone]
